Data set [1] concerns WiDr human colon cancer cells. As to the kind of experiment: Growth inhibitory activities on WiDr human colon cancer cells (MTT). The note with it: 72 h, three days incubation. It is filed as cell-based. How it is done: WiDr human colon cancer cells cultured in DULBECCO-modified eagle medium (DMEM; manufactured by SIGMA Co., Ltd.) containing 10% fetal calf serum, penicillin (100 unit/mL) and streptomycin (100 μg/mL) were dispensed in 96-well plates by 2×10^3 cells/well. After culturing overnight in a CO2 incubator, 20 μL of the above-mentioned incubation solution containing the test compound diluted with 3-fold succession was added, followed by incubation. After three days, 50 μL of 3.3 mg/mL MTT solution was added, followed by culturing for further one hour. Then, formazan formed by the reduction by the action of living cells was extracted with 100 μL of DMSO, the absorbance (A540/A660) was determined and was set as the index of the number of living cells.
The concentrations of the compounds of the formula (I) at which the growth of WiDr human colon cancer cells are inhibited 50% were determined.

The nature of data set [2]: Body weight loss (acute toxicity) in the WiDr tumor model. It is filed as in vivo, nude mice. As to conditions: intravenous 5 consecutive days, body weight relative to Day 1. The text has this: (§1) In order to study solid tumor growth inhibitory activities of the compounds of the formula (I) in vivo, WiDr human colon cancer cells were implanted subcutaneously into the flanks of nude mice. […]. The animals were grouped so that the average of the volumes of the respective groups became uniform, when it reached about 100 mm^3. Control group was made up of 10 mice and 11107D-administering groups were made up of 5 mice. The derivatives were administered for the administering groups for 5 consecutive days by intravenous injection so as to be any of 0.625 mg, 1.25 mg, 2.5 mg, 5 mg and 10 mg/kg/day, and a vehicle was administered to the control group. The tumor volumes on Day 15 were measured, and relative tumor volume ratios (T/C %) were determined setting the tumor volume of the control group as 100%. The body weights on Day 1, Day 5, Day 8, Day 12 and Day 15 (or 16) were measured, and relative body weight variations were determined setting the body weight on Day 1 as 100%. The relative body weight ratios on the day where the body weight reached the minimum were defined as the minimum relative weight ratios and are shown in Table 3.

For data set [3], the system named is WiDr human colon cancer cells. The data set can be described thus: Solid tumor growth inhibitory activities, WiDr human colon tumor model in nude mice. The note with it: Mus musculus, iv, 360 h, read-out: Growth inhibitory activities in the WiDr human solid tumor model (T/C %). The class given is in vivo.
From the text: as §1

A further data set deals with VEGF promoter. As to the kind of experiment: VEGF transcription-suppressing activity (VEGF promoter-PLAP reporter, U251/1-8 cells, hypoxia). It is filed as cell-based. As to conditions: Homo sapiens, U-251, 18 h, read-out: VEGF transcription-suppressing activities (IC50: nM). The text has this:
In order to prepare reporter system reflecting transcription from VEGF promoter, VEGF promoter sequence was cloned, and inserted in secretory alkaline phosphatase (PLAP) vector to construct reporter vector.
In order to obtain the promoter region of human VEGF, VEGF genomic DNA was cloned from phage library. PCR primers having the sequences described in Sequence Numbers 1 and 2 were designed based on VEGF cDNA (GenBank accession number: X62568) and a fragment having about 340 bp was obtained by carrying out PCR. Human genomic phage library (Human genomic library, Clontech Co.) was screened using this as a probe to obtain VEGF genomic DNA. The DNA was digested by EcoRI, and the resultant fragments were inserted in the EcoRI site of pUC18. Finally, pUC18-VEGFA containing about 5.4 kb of VEGF 5′ flanking region was obtained. The pUC18-VEGFA was digested by KpnI/NheI, VEGF promoter region of about 2.3 kb obtained was inserted in the multi cloning site KpnI/NheI of secretory alkaline phosphatase (PLAP) vector (Goto et al, Mol. Pharmacol., 49, 860-873, 1996), and thus, VEGF-PLAP vector was constructed.
The above-mentioned VEGF-PLAP vector was transfected in the U251 cell cultured in the DULBECCO-modified eagle medium (DMEM; manufactured by SIGMA Co., Ltd.) containing 10% fetal calf serum, and the cells were cultured in the presence of 1 mg/mL G418 (Merck Co.) to establish G418 resistant stable clone (U251/1-8 cell).
It was confirmed that U251/1-8 cell secreted PLAP under hypoxic condition (2% O2 incubator) in the same manner as in the report (Cell. Mol. Biol. Res. 40, 35-39, 1994) and was a reporter system reflecting the transcription from VEGF promoter. The screening of the compound suppressing VEGF production which was induced by hypoxic stimulation was carried out below using the clone.
In order to remove the influence of alkaline phosphates in serum, U251/1-8 cells were rinsed twice with the adequate amount of PBS (Phosphate buffered saline), diluted in the DMEM medium containing 10% of serum in which alkaline phosphates was inactivated by the treatment of 65° C. for 20 min., and dispensed in 96-well plates by 4×10^4 cells/180 μL.
After culturing at 37° C. overnight in a CO2 incubator (5% CO2), 20 μL of the above-mentioned incubation solution containing the test compound diluted with 3-fold succession was added, and then they were incubated in a hypoxic (2% […]) incubator for 18 hours. With respect to the PLAP activity in the culture supernatants, 10 μL of the supernatants was added to 50 μL of 0.28 M Na2CO3—NaHCO3 buffer solution (pH 10.0, 8.0 mM MgSO4), and finally 50 μL of alkaline phosphatase substrate (LUMISTEIN, Genomescience Co.) was added. After reacting for one hour, the alkaline phosphatase activity of the PLAP was measured by detecting the chemical luminescence by a micro plate reader (Perkin-Elmer Co.). The PLAP activity under normoxia was set as 0%, the PLAP activity of cell which was treated under hypoxia was set as 100%, and the concentration suppressing the PLAP activity by 50% was set as the IC50 value of PLAP. The IC50 values of 11107D derivatives shown in Examples were measured, and the IC50 values of representative 11107D derivatives are shown in Table 1.

A short description of data set [4]: Stability in an aqueous solution (HPLC residual ratio). As to conditions: for Peak area (mAU × sec) after 24 hours / The residual ratios (%): Britton-Robinson's buffer pH 7, 25° C., 24 hours; for Peak area (mAU × sec) initial: Britton-Robinson's buffer pH 7, before incubation.
Experimental: The compounds of the formula (I) were dissolved in DMSO in concentrations of 10 to 20 mM, and these were diluted about 500 folds with Britton-Robinson's buffer solution of pH 7. Each of the solutions as sample solutions was incubated at 25° C. for 24 hours.
The sample solutions were analyzed by high performance liquid chromatography before and after incubation, and the residual ratios of the tested substances in the sample solutions after incubation were determined from the peak areas of the obtained chromatograms.

Take `CCC(O)C(C)C1OC1CC(C)(O)/C=C/C=C(\C)C1OC(=O)CC(O)CCC(C)(O)C(OC(=O)N(C)CCN(C)C)/C=C/C1C` (stereo not shown) [Compound 6, (8E,12E,14E)-7-(N-(2-(N′,N′-Dimethylamino)ethyl)-N-methylcarbamoyloxy)-3,6,16,21-tetrahydroxy-6,10,12,16,20-pentamethyl-18,19-epoxytricosa-8,12,14-trien-11-olide]: the half-inhibitory concentration (IC50) in data set [1] is 12.5 nM; in the data set on VEGF promoter it was 32 nM. For the same compound, the “the minimum relative weight ratios” value in data set [2] (Dose 1.25 mg/kg) is given as 0.81. The response vs control in vivo at 1.25 mg/kg in data set [3] came to 35%.

`CCC(O)C(C)C1OC1CC(C)(O)/C=C/C=C(\C)C1OC(=O)CC(O)CCC(C)(O)C(OC(=O)N2CCCN(C)CC2)/C=C/C1C` (stereo not shown) [Compound 9, (8E,12E,14E)-3,6,16,21-Tetrahydroxy-6,10,12,16,20-pentamethyl-7-((4-methylhomopiperazin-1-yl)carbonyl)oxy-18,19-epoxytricosa-8,12,14-trien-11-olide] had an IC50 in data set [1] of 5.5 nM. Moreover, the “the minimum relative weight ratios” value in data set [2] (Dose 5.0 mg/kg) was found to be 0.86. In data set [3], the response vs control in vivo at 5 mg/kg was 10%. In data set [4], the “Peak area (mAU × sec) after 24 hours” value was determined as 5476 mAU × sec, the “The residual ratios (%)” value came to 96.2% and the “Peak area (mAU × sec) initial” value is recorded as 5690 mAU × sec. Further, the IC50 in the data set on VEGF promoter was found to be 12.9 nM.

With `CCC(O)C(C)C1OC1CC(C)(O)/C=C/C=C(\C)C1OC(=O)CC(O)CCC(C)(O)C(OC(=O)N2CCN(C)CC2)/C=C/C1C` (stereo not shown) [Compound 12, (8E,12E,14E)-3,6,16,21-Tetrahydroxy-6,10,12,16,20-pentamethyl-7-((4-methylpiperazin-1-yl)carbonyl)oxy-18,19-epoxytricosa-8,12,14-trien-11-olide], the “the minimum relative weight ratios” value in data set [2] (Dose 2.5 mg/kg) was found to be 0.85. In addition, in data set [3], the response vs control in vivo at 2.5 mg/kg was 21%. Also, in data set [4], the “Peak area (mAU × sec) after 24 hours” value was 5169 mAU × sec, the “The residual ratios (%)” value is given as 94.9% and the “Peak area (mAU × sec) initial” value is listed as 5450 mAU × sec. Besides, in the data set on VEGF promoter, the IC50 is 10.2 nM.

In the case of `CCCCN1CCN(C(=O)OC2/C=C/C(C)C(/C(C)=C/C=C/C(C)(O)CC3OC3C(C)C(O)CC)OC(=O)CC(O)CCC2(C)O)CC1` (stereo not shown) [Compound 16, (8E,12E,14E)-7-((4-Butylpiperazin-1-yl)carbonyl)oxy-3,6,16,21-tetrahydroxy-6,10,12,16,20-pentamethyl-18,19-epoxytricosa-8,12,14-trien-11-olide], the figures for the half-maximal inhibitory concentration (IC50) (in data set [1]; in the data set on VEGF promoter) were 2 nM and 3.1 nM, respectively. Further, the “the minimum relative weight ratios” value in data set [2] (Dose 2.5 mg/kg) worked out at 0.90. Further, the response vs control in vivo at 2.5 mg/kg in data set [3] was 28%.

Consider `CCC(O)C(C)C1OC1CC(C)(O)/C=C/C=C(\C)C1OC(=O)CC(O)CCC(C)(O)C(OC(=O)N2CCN(CC)CC2)/C=C/C1C` (stereo not shown) [Compound 21, (8E,12E,14E)-7-((4-Ethylpiperazin-1-yl)carbonyl)oxy-3,6,16,21-tetrahydroxy-6,10,12,16,20-pentamethyl-18,19-epoxytricosa-8,12,14-trien-11-olide], for which the values for the 50% inhibitory concentration (IC50) (in data set [1]; in the data set with VEGF promoter) were 3.2 nM and 6.1 nM, respectively. Further, in data set [2] (Dose 2.5 mg/kg), the “the minimum relative weight ratios” value is 0.80. Besides, the response vs control in vivo at 2.5 mg/kg in data set [3] is 28%.

In turn, `CCC(O)C(C)C1OC1CC(C)(O)/C=C/C=C(\C)C1OC(=O)CC(O)CCC(C)(O)C(OC(=O)N2CCC(N3CCCCC3)CC2)/C=C/C1C` (stereo not shown) [Compound 22, (8E,12E,14E)-3,6,16,21-Tetrahydroxy-6,10,12,16,20-pentamethyl-7-((4-(piperidin-1-yl)piperidin-1-yl)carbonyl)oxy-18,19-epoxytricosa-8,12,14-trien-11-olide] displayed a 50% inhibitory concentration (IC50) in data set [1] of 14.6 nM. The “the minimum relative weight ratios” value in data set [2] (Dose 5.0 mg/kg) was 0.74. Also, the response vs control in vivo at 5 mg/kg in data set [3] came to 39%. In addition, in data set [4], the “Peak area (mAU × sec) after 24 hours” value came out at 4514 mAU × sec, the “The residual ratios (%)” value is 95.8% and the “Peak area (mAU × sec) initial” value worked out at 4713 mAU × sec. In addition, the IC50 in the data set on VEGF promoter is 25.6 nM.

On to `CCC(O)C(C)C1OC1CC(C)(O)/C=C/C=C(\C)C1OC(=O)CC(O)CCC(C)(O)C(OC(=O)N2CCN(C3CCCCC3)CC2)/C=C/C1C` (stereo not shown) [Compound 26, (8E,12E,14E)-7-((4-Cyclohexylpiperazin-1-yl)carbonyl)oxy-3,6,16,21-tetrahydroxy-6,10,12,16,20-pentamethyl-18,19-epoxytricosa-8,12,14-trien-11-olide], for which the values for the IC50 (in data set [1]; with VEGF promoter) were 1.6 nM and 2.8 nM, respectively. Moreover, in data set [2] (Dose 2.5 mg/kg), the “the minimum relative weight ratios” value is 0.93. Besides, the response vs control in vivo at 2.5 mg/kg in data set [3] was 42%.

As for `CCC(O)C(C)C1OC1CC(C)(O)/C=C/C=C(\C)C1OC(=O)CC(O)CCC(C)(O)C(OC(=O)N2CCN(C(C)C)CC2)/C=C/C1C` (stereo not shown) [Compound 44, (8E,12E,14E)-3,6,16,21-Tetrahydroxy-7-((4-isopropylpiperazin-1-yl)carbonyl)oxy-6,10,12,16,20-pentamethyl-18,19-epoxytricosa-8,12,14-trien-11-olide], 2.1 nM corresponded to half-maximal inhibition in data set [1] (IC50). For the same compound, in data set [2] (Dose 5.0 mg/kg), the “the minimum relative weight ratios” value amounted to 0.89. The response vs control in vivo at 5 mg/kg in data set [3] amounted to 19%. In data set [4], the “Peak area (mAU × sec) after 24 hours” value came to 3820 mAU × sec, the “The residual ratios (%)” value turned out to be 94.8% and the “Peak area (mAU × sec) initial” value turned out to be 4031 mAU × sec. Also, in the data set with VEGF promoter, the IC50 was 3.9 nM.

The record behind these values is patent US7893068B2, “Physiologically active substances” (Mercian Corporation, priority 2002, dated 2011).
